Measured values: patent publication US5656590A, “Treatment of anorexia and related states” (Amylin Pharmaceuticals, Inc., priority 1993, dated 1997)
Ends that are not written are not given here.

Assays:
[1] = solubility and stability characteristics compared to human amylin; assay type: physicochemical
[2] = amylin agonist activity in vivo: ability to induce hyperlactemia and/or hyperglycemia in mammals; details: treated test animals
Text: Analogues of amylin can be assayed for activity in the soleus muscle assay described above. Amylin agonist activity of compounds may also be assessed by the ability to induce hyperlactemia and/or hyperglycemia in mammals. […] These preferred compounds include ^25 Pro^26 Val^28,29 Pro-h-amylin, ^25,28,29 Pro-h-amylin, and ^18 Arg^25,28 Pro-h-amylin.

[3] = toxicological studies with amylin, two weeks of administration (rats); assay type: in vivo
Text: (§1) While this proposal is counter to reports that amylin can suppress appetite (which is clearly an undesirable feature for treatment of anorexia or cachectic states), applicant believes that the appetite suppressant effects of amylin is seen only at very high doses and may be short lived. Indeed, applicant has discovered that in toxicological studies with amylin in both rats and dogs, where two weeks of amylin administration were used, there was no reduction in food intake or weight in the animal.

liver glucose output = details: rats; cited from earlier work
[4] = toxicological studies with amylin, two weeks of administration (dogs); assay type: in vivo
Text: as §1

[5] = administration of amylin to anesthetized rats: blood lactate and blood glucose; assay type: in vivo
Text: The term "amylin" is used in this application to include compounds defined by Young et al., U.S. application Ser. No. 07/640,478, filed Jan. 10, 1991, now U.S. Pat. No. 5,234,906, entitled "Hyperglycemic Compositions", which (including drawings) is hereby incorporated by reference. For example, it includes the peptide hormone, and species variations of it, referred to as amylin which is synthesized and secreted from the beta cells of the pancreas. Thus, it includes human amylin, cat amylin, dog amylin; rat amylin, mouse amylin, hamster amylin, and guinea pig amylin. Preferably the amylin has an EC50 of less than 1 nM in the rat soleus muscle assay as described in, for example, European Patent Application 88307927.9. Amylin functions along with insulin, which is stored and released from the same pancreatic beta cells, to regulate fuel metabolism. Amylin acts through receptors located in skeletal muscle to increase glycogen turnover in this tissue, believed to result in an increased return to the bloodstream of lactate, which is a major precursor of hepatic gluconeogenesis. Amylin cosecretion with insulin after meals therefore results in restoration of hepatic glycogen content and limits the potential which would otherwise exist for insulin to induce hypoglycemia. […]

solubility characteristics [1] | stability characteristics [1] | Substance | amylin activity in vivo (hyperlactemia, hyperglycemia) [2] | other results
more desireable | more desireable | ^25 Pro^26 Val^28,29 Pro-h-amylin |  | 
 |  | des-^1 Lys-h-amylin (CNTATCATQRLANFLVHSSNNFGAILSSTNVGSNTY; ends and bridges not checked; cysteine pairing not given here; UniProt P10997 34-70, looked up, variant K1*) [agonist analogue of human amylin] | marked hyperlactemia followed by hyperglycemia | 
 |  | des-^1 Lys^18 Arg^25,28 Pro-h-amylin | marked hyperlactemia followed by hyperglycemia | 
 |  | amylin (KCNTATCATQRLANFLVHSSNNFGAILSSTNVGSNTY; Islet amyloid polypeptide; UniProt P10997 34-70, looked up) [peptide hormone, and species variations of it, synthesized and secreted from the beta cells of the pancreas] |  | reduction in food intake [3]: no reduction; reduction in weight [3]: no reduction; effect on insulin-mediated suppression of liver glucose output (liver glucose output): reverses insulin-mediated suppression of liver glucose output; reduction in food intake [4]: no reduction; reduction in weight [4]: no reduction; blood lactate levels [5]: large increases in blood lactate levels; blood glucose levels ([5]; following the lactate increase): increased blood glucose levels
more desireable | more desireable | ^18 Arg^25,28 Pro-h-amylin | marked hyperlactemia followed by hyperglycemia | 
 |  | ^28 Pro-h-amylin (KCNTATCATQRLANFLVHSSNNFGAILPSTNVGSNTY; ends and bridges not checked; cysteine pairing not given here; UniProt P10997 34-70, looked up, variant S28P) [agonist analogue of human amylin] | marked hyperlactemia followed by hyperglycemia | 

Substance | solubility characteristics [1] | stability characteristics [1] | amylin activity in vivo (hyperlactemia, hyperglycemia) [2] | other results
^25,28,29 Pro-h-amylin (KCNTATCATQRLANFLVHSSNNFGPILPPTNVGSNTY; ends and bridges not checked; cysteine pairing not given here; UniProt P10997 34-70, looked up, variant A25P S28P S29P) [agonist analogue of human amylin] | more desireable | more desireable | marked hyperlactemia followed by hyperglycemia | 
